{"source": "patent US20210046071A1", "about": "“TETRACYCLIC COMPOUNDS AND THEIR SALTS, COMPOSITIONS, AND METHODS FOR THEIR USE” (Senhwa Biosciences, Inc., priority 2019, published 2021)", "assay": "Pharmacokinetic studies in human, Compound I in plasma by LC/MS/MS", "assay_type": "in vivo", "protocol": "Pharmacokinetic studies and dose escalation studies were conducted in adult patients with metastatic, recurrent, locally, advanced, or unresectable solid malignancy (patients with histologically and/or cytologically confirmed solid malignancy), who received prior anti-cancer treatment(s) until disease progression, at 10 different dose levels of Compound I. Groups 1-7 were administered intravenously on days 1 and 8 of a 4-week cycle at 50, 100, 150, 200, 250, 325, and 475 mg/m^2 (lyophilized formulation), respectively. Groups 8-10 were administered intravenously on days 1,8, and 15 of a 4-week cycle at 325, 475, and 650 mg/m^2 (lyophilized formulation), respectively. Each patient received each dose over 1 hour by IV infusion on days described above.\nThey lyophilized formulation was reconstituted with 5% glucose in sterile water, or similar biologically acceptable fluid, for IV infusion.\nFor patients in Groups 1-7, blood samples were typically collected at Day 1 at pre-infusion (t=−1 h), during infusion at about 30 minutes (t=−0.5 h), immediately post infusion (t=0 h), 30 min post-infusion, 1 h post-infusion, 2 h post-infusion, 4 h post-infusion, and 6 h post-infusion, as well as at about 24 h post-infusion, 48 h post-infusion, and 72 h post-infusion. On Day 8, blood samples were typically collected at pre-infusion (t=−1 h), during infusion at about 30 minutes (t=−0.5 h), immediately post infusion (t=0 h), 30 min post-infusion, 1 h post-infusion, 2 h post-infusion, 4 h post-infusion, and 6 h post-infusion, as well as at about 24 h post-infusion, and 168 h post-infusion (Day 15).\nFor patients in Groups 8-10, blood samples were typically collected at Day 1 at pre-infusion (t=−1 h), during infusion at about 30 minutes (t=−0.5 h), immediately post infusion (t=0 h), 30 min post-infusion, 1 h post-infusion, 2 h post-infusion, 4 h post-infusion, and 6 h post-infusion, as well as at about 24 h post-infusion, 48 h post-infusion, and 72 h post-infusion. On Day 8, blood samples were typically collected at pre-infusion (t=−1 h). On Day 15, blood samples were typically collected at pre-infusion (t=−1 h), during infusion at about 30 minutes (t=−0.5 h), immediately post infusion (t=0 h), 30 min post-infusion, 1 h post-infusion, 2 h post-infusion, 4 h post-infusion, and 6 h post-infusion, as well as at about 24 h post-infusion, and 168 h post-infusion (Day 22).\nLevels of Compound I in patient's plasma were analyzed by liquid chromatography tandem mass spectrometry (LC/MS/MS) assay. Experimental procedures of the validated methods are summarized below. The pharmacokinetic parameters after first dose and second dose for Groups 1-7 and after first dose and third dose for Groups 8-10 are shown in Tables 2A-2J. In Tables 2A-2J: SD=standard deviation; Cmax=maximum observed concentration; D=dose; Tmax=time to maximum observed concentration; T1/2=elimination half-life; Vd=volume of distribution; CL=drug clearance; and AUC∞=area under the concentration-time curve from time zero to infinity (total exposure).\nThe concentrations of Compound I in human plasma samples collected from subjects of as discussed above. Compound I concentrations in plasma samples were measured based on 9 levels of calibration standards from 5.00 to 5000 ng/mL, and 3 levels of QC at 15.0 ng/mL (low), 2500 ng/mL (mid), and 4000 ng/mL (high).\nTwo reference standard master stock solutions of Compound I were prepared by dissolving the Compound 1 reference standard with 50:50:0.1 ACN:diH2O:FA (v/v/v) and sonicating for 7 minutes (diH2O=deionized water). The resulting solutions were further diluted with 50:50:0.1 ACN:diH2O:FA (v/v/v) into a series of working stock solutions (WSS) for spiking of Compound I calibration standards and QC samples. The master stock solutions were prepared fresh on the day of assay, or stored at nominal 2° C. to 8° C. for later use. Master stock solutions were used within the stability timeframe. […]", "key": {"[1]": {"conditions": "Group 1, 50 mg/m^2 IV, Day 1, mean, n = 4"}, "[2]": {"conditions": "Group 1, 50 mg/m^2 IV, Day 8, mean, n = 3"}, "[3]": {"conditions": "Group 2, 100 mg/m^2 IV, Day 8, mean, n = 3"}, "[4]": {"conditions": "Group 3, 150 mg/m^2 IV, Day 1, mean, n = 4"}, "[5]": {"conditions": "Group 3, 150 mg/m^2 IV, Day 8, mean, n = 4"}, "[6]": {"conditions": "Group 4, 200 mg/m^2 IV, Day 1, mean, n = 4"}, "[7]": {"conditions": "Group 4, 200 mg/m^2 IV, Day 8, mean, n = 4"}, "[8]": {"conditions": "Group 5, 250 mg/m^2 IV, Day 1, mean, n = 3"}, "[9]": {"conditions": "Group 5, 250 mg/m^2 IV, Day 8, mean, n = 3"}, "[10]": {"conditions": "Group 6, 325 mg/m^2 IV, Day 1, mean, n = 3"}, "[11]": {"conditions": "Group 6, 325 mg/m^2 IV, Day 8, mean, n = 3"}, "[12]": {"conditions": "Group 7, 475 mg/m^2 IV, Day 1, mean, n = 3"}, "[13]": {"conditions": "Group 7, 475 mg/m^2 IV, Day 8, mean, n = 3"}, "[14]": {"conditions": "Group 9, 475 mg/m^2 IV, Day 1, mean, n = 5"}, "[15]": {"conditions": "Group 10, 650 mg/m^2 IV, Day 1, mean, n = 5"}, "[16]": {"conditions": "Group 10, 650 mg/m^2 IV, Day 15, mean, n = 5"}}, "data": [{"smiles": "Cc1cnc(CNC(=O)c2c(=O)c3ccc(N4CCCN(C)CC4)nc3n3c2sc2ccccc23)cn1", "note": "[Compound I, 2-(4-Methyl-[1,4]diazepan-1-yl)-5-oxo-5H-7-thia-1,11b-diaza-benzo[c]fluorene-6-carboxylic acid (5-methyl-pyrazin-2-ylmethyl)-amide]", "values": [{"measurement": "AUC∞/D", "setting": "[1]", "result": 170, "unit": "ng·h/mL/mg"}, {"measurement": "Cmax/D", "setting": "[1]", "result": 8.14, "unit": "ng/mL/mg"}, {"measurement": "AUC∞/D", "setting": "[2]", "result": 94.9, "unit": "ng·h/mL/mg"}, {"measurement": "Cmax/D", "setting": "[2]", "result": 7.23, "unit": "ng/mL/mg"}, {"measurement": "AUC∞/D", "setting": "Group 2, 100 mg/m^2 IV, Day 1, mean, n = 3", "result": 38.3, "unit": "ng·h/mL/mg"}, {"measurement": "Cmax/D", "setting": "Group 2, 100 mg/m^2 IV, Day 1, mean, n = 4", "result": 5.94, "unit": "ng/mL/mg"}, {"measurement": "AUC∞/D", "setting": "[3]", "result": 47.4, "unit": "ng·h/mL/mg"}, {"measurement": "Cmax/D", "setting": "[3]", "result": 3.97, "unit": "ng/mL/mg"}, {"measurement": "AUC∞/D", "setting": "[4]", "result": 84.5, "unit": "ng·h/mL/mg"}, {"measurement": "Cmax/D", "setting": "[4]", "result": 5.43, "unit": "ng/mL/mg"}, {"measurement": "AUC∞/D", "setting": "[5]", "result": 91.1, "unit": "ng·h/mL/mg"}, {"measurement": "Cmax/D", "setting": "[5]", "result": 5.49, "unit": "ng/mL/mg"}, {"measurement": "AUC∞/D", "setting": "[6]", "result": 42.7, "unit": "ng·h/mL/mg"}, {"measurement": "Cmax/D", "setting": "[6]", "result": 26.9, "unit": "ng/mL/mg"}, {"measurement": "AUC∞/D", "setting": "[7]", "result": 44.5, "unit": "ng·h/mL/mg"}, {"measurement": "Cmax/D", "setting": "[7]", "result": 3.27, "unit": "ng/mL/mg"}, {"measurement": "AUC∞/D", "setting": "[8]", "result": 48.0, "unit": "ng·h/mL/mg"}, {"measurement": "Cmax/D", "setting": "[8]", "result": 3.15, "unit": "ng/mL/mg"}, {"measurement": "AUC∞/D", "setting": "[9]", "result": 64.6, "unit": "ng·h/mL/mg"}, {"measurement": "Cmax/D", "setting": "[9]", "result": 1.87, "unit": "ng/mL/mg"}, {"measurement": "AUC∞/D", "setting": "[10]", "result": 46.9, "unit": "ng·h/mL/mg"}, {"measurement": "Cmax/D", "setting": "[10]", "result": 2.14, "unit": "ng/mL/mg"}, {"measurement": "AUC∞/D", "setting": "[11]", "result": 57.8, "unit": "ng·h/mL/mg"}, {"measurement": "Cmax/D", "setting": "[11]", "result": 2.09, "unit": "ng/mL/mg"}, {"measurement": "AUC∞/D", "setting": "[12]", "result": 44.0, "unit": "ng·h/mL/mg"}, {"measurement": "Cmax/D", "setting": "[12]", "result": 2.48, "unit": "ng/mL/mg"}, {"measurement": "AUC∞/D", "setting": "[13]", "result": 44.1, "unit": "ng·h/mL/mg"}, {"measurement": "Cmax/D", "setting": "[13]", "result": 2.15, "unit": "ng/mL/mg"}, {"measurement": "AUC∞/D", "setting": "Group 8, 325 mg/m^2 IV, Day 1, mean, n = 3", "result": 52.1, "unit": "ng·h/mL/mg"}, {"measurement": "Cmax/D", "setting": "Group 8, 325 mg/m^2 IV, Day 1, mean, n = 4", "result": 2.04, "unit": "ng/mL/mg"}, {"measurement": "Cmax/D", "setting": "Group 8, 325 mg/m^2 IV, Day 15, mean, n = 4", "result": 35.5, "unit": "ng/mL/mg"}, {"measurement": "AUC∞/D", "setting": "[14]", "result": 42.7, "unit": "ng·h/mL/mg"}, {"measurement": "Cmax/D", "setting": "[14]", "result": 2.01, "unit": "ng/mL/mg"}, {"measurement": "AUC∞/D", "setting": "Group 9, 475 mg/m^2 IV, Day 15, mean, n = 4", "result": 39.8, "unit": "ng·h/mL/mg"}, {"measurement": "Cmax/D", "setting": "Group 9, 475 mg/m^2 IV, Day 15, mean, n = 5", "result": 3.34, "unit": "ng/mL/mg"}, {"measurement": "AUC∞/D", "setting": "[15]", "result": 46.5, "unit": "ng·h/mL/mg"}, {"measurement": "Cmax/D", "setting": "[15]", "result": 2.61, "unit": "ng/mL/mg"}, {"measurement": "AUC∞/D", "setting": "[16]", "result": 48.6, "unit": "ng·h/mL/mg"}, {"measurement": "Cmax/D", "setting": "[16]", "result": 3.44, "unit": "ng/mL/mg"}, {"measurement": "Plasma kinetic behavior", "setting": "all dose levels, Groups 1-10", "result": "semi-logarithmic biphasic kinetic behavior"}, {"measurement": "Cmax", "setting": "human, plasma, intravenous, 200 mg/m2, Groups 1-7, Day 1, range of group means (200 mg/m^2 outlier apart)", "result": "728 to 1940", "unit": "ng/mL"}]}]}
